Assay results as given in ChEMBL document CHEMBL6115018, “MrgX2-Targeting Ligand Screen for Antipseudoallergic Agents by Immobilized His-Tag-Fused Protein Technology” (J Med Chem, 2025).
Activity calls are given as the source filed them. The rule behind the calls is not given here.

Legend:
[1] = target: T1, Mas-related G-protein coupled receptor member X2 (Homo sapiens) (UniProt Q96LB1); assay: Competitive binding affinity to MrgX2 (unknown origin) assessed as retention time of compound at 1 x 10^-7mol/L by zonal elution method (reference value: 58.73 min); settings: dose 1.0 10^-7mol/L
T1 sequence (whole entry): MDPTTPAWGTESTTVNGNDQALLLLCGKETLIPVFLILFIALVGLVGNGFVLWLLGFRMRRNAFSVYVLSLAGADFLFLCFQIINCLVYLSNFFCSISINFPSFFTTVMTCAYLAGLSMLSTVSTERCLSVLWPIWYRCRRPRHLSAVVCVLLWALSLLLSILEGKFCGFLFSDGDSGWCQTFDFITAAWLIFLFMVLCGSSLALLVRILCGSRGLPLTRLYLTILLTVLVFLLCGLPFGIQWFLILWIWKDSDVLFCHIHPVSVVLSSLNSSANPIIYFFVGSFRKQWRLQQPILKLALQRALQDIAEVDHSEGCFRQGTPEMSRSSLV

[2] = target: T1, Mas-related G-protein coupled receptor member X2 (Homo sapiens); assay: Competitive binding affinity to MrgX2 (unknown origin) assessed as retention time of compound at 2 x 10^-8mol/L by zonal elution method (reference value: 58.73 min); settings: dose 2.0 10^-8mol/L
[3] = target: T1, Mas-related G-protein coupled receptor member X2 (Homo sapiens); assay: Competitive binding affinity to MrgX2 (unknown origin) assessed as retention time of compound at 4 x 10^-8mol/L by zonal elution method (reference value: 58.73 min); settings: dose 4.0 10^-8mol/L
[4] = target: T1, Mas-related G-protein coupled receptor member X2 (Homo sapiens); assay: Competitive binding affinity to MrgX2 (unknown origin) assessed as retention time of compound at 8 x 10^-8mol/L by zonal elution method (reference value: 58.73 min); settings: dose 8.0 10^-8mol/L
[5] = test system: Mus musculus; assay: Anti-pseudoallergic activity in C48/80-induced male C57BL/6 mouse model assessed as reduction in serum histamine release at 1 to 10 mg/kg, preadministered with compound via gavage for 2 hrs followed by C48/80 administration and measured after 1 hrs by UHPLC-ESI-MS/MS analysis; type: functional, organism-based; settings: dose 1-10 mg/kg, time 3.0 hrs
[6] = Cytotoxicity against human LAD2 cells assessed as cell viability incubated for 24 hrs by CCK8 assay relative to control; type: toxicity, cell-based; settings: read-out: Activity
[7] = test system: LAD2; assay: Anti-pseudoallergic activity in human LAD2 cells assessed as inhibition of SP-induced beta-aminohexosidase release at 50 uM preincubated for 30 mins followed by SP addition and measured after 30 mins by absorbance based microplate reader analysis relative to control; type: functional; settings: LAD2, 1 h, time 60 min
[8] = test system: LAD2; assay: Anti-pseudoallergic activity in human LAD2 cells assessed as inhibition of SP-induced beta-aminohexosidase release preincubated for 30 mins followed by SP addition and measured after 30 mins by absorbance based microplate reader analysis; type: functional, cell-based
[9] = test system: LAD2; assay: Anti-pseudoallergic activity in human LAD2 cells assessed as inhibition of C48/80-induced beta-aminohexosidase release preincubated for 30 mins followed by SP addition and measured after 30 mins by absorbance based microplate reader analysis; type: functional, cell-based
[10] = test system: LAD2; assay: Anti-pseudoallergic activity in human LAD2 cells assessed as inhibition of SP-induced histamine release preincubated for 30 mins followed by SP addition and measured after 30 mins by UHPLC-ESI-MS/MS analysis; type: functional, cell-based; settings: dose 1-10 µM, time 60.0 min
[11] = test system: LAD2; assay: Anti-pseudoallergic activity in human LAD2 cells assessed as inhibition of SP-induced TNF-alpha release incubated for 6 hrs by ELISA analysis; type: functional, cell-based; settings: dose 1-10 µM
[12] = test system: Mus musculus; assay: Anti-pseudoallergic activity in C48/80-induced male C57BL/6 mouse model assessed as reduction in mast cell degranulation at 1 mg/mL administered via gavage for 2 hrs by Toluidine blue staining based analysis; type: functional, organism-based
[13] = test system: Mus musculus; assay: Anti-pseudoallergic activity in C48/80-induced male C57BL/6 mouse model assessed as reduction in paw thickness at 0.5 to 1.0 mg/mL administered via gavage for 2 hrs by vernier caliper based analysis; type: functional, organism-based; settings: dose 0.5-1 mg/ml
[14] = test system: Mus musculus; assay: Anti-pseudoallergic activity in C48/80-induced male C57BL/6 mouse model assessed as reduction in evans blue extravasation at 1.0 mg/mL administered via gavage for 2 hrs by absorbance based assay; type: functional, organism-based

Retention time [1]	Retention time [2]	Retention time [3]	Retention time [4]	IC50 [8]	IC50 [9]	SMILES	Activity [5]	viability at 24 h [6]	inhibition at 50 µM [7]	Activity ([8]; time 60.0 min)	Activity ([9]; time 60.0 min)	Activity [10]	Activity [11]	Activity [12]	Activity [13]	Activity [14]
23.7 min	56.1 min	46.3 min	29.2 min	–	–	CN(C)[C@@H]1CCN(c2cc(-c3ccccc3)nc3ccnn23)C1	–	–	–	–	–	–	–	–	–	–
–	–	–	–	4.9 µM	6.18 µM	O=C(CSc1nnc(-c2ccccc2)c(-c2ccccc2)n1)Nc1ccc(Cl)cc1Cl	Active	> 85%	75%	Dose-dependent-effect	Dose-dependent-effect	Dose-dependent-effect	Dose-dependent-effect	Active	Active	Active
